Source: ChEMBL document CHEMBL5365534, “Discovery of a Novel Ketohexokinase Inhibitor with Improved Drug Distribution in Target Tissue for the Treatment of Fructose Metabolic Disease” (J Med Chem, 2023)
pIC50: −log10 of the molar value. Converted amounts (≈) assume the structure as drawn.

How the values were obtained:
in vitro [1] = settings: human, Caco-2
physchem [2] = experiment: physchem
physchem [3] = settings: buffer, pH 7.4
Ketohexokinase = target: T1, Ketohexokinase (Homo sapiens, UniProt P50053)
T1 sequence (P50053 whole entry): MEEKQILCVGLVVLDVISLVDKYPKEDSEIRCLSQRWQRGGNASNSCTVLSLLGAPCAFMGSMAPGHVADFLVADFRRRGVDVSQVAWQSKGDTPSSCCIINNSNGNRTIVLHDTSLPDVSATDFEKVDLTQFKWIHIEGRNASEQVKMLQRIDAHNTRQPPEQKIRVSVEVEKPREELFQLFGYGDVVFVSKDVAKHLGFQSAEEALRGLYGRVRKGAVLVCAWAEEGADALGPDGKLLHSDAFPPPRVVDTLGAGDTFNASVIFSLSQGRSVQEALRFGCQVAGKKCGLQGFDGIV

in vitro [4] = settings: human, Caco-2; remark: listed apart in the source
in vitro [5] = settings: rat, liver microsomes
in vitro [6] = settings: human, liver microsomes
in vitro [7] = settings: dog, liver microsomes

Papp A→B at 2 h, 10 µM (in vitro [1]) | solubility kinetic (physchem [2]) | logD (physchem [3]) | pIC50 (Ketohexokinase) | efflux ratio (in vitro [4]) | microsomal CLint at 2 h, 1 µM (in vitro [5]) | microsomal CLint at 2 h, 1 µM (in vitro [6]) | Kinetic_solubility | microsomal CLint at 2 h, 1 µM (in vitro [7]) | Compound
10.9 ×10⁻⁶ cm/s | > 1000 µM | 1.48 | 6.97 | 2.48 |  |  |  |  | C[C@H]1CCN1c1nc(N2CC(CC(=O)O)C(F)(F)C2)cc(C(F)(F)F)c1C#N (some centres not stated)
0.09 ×10⁻⁶ cm/s | 889 µM (≈ 342 µg/mL) | 0.93 | 6.86 | 218 |  |  |  |  | C[C@H]1CCN1c1nc(N2C[C@@H](CC(=O)O)[C@H](O)C2)cc(C(F)(F)F)c1C#N (racemic)
16.2 ×10⁻⁶ cm/s | > 1000 µM | 1.73 | 6.97 | 1.78 | 5.6 µL/min/mg | 4.6 µL/min/mg |  |  | C[C@H]1CCN1c1nc(N2CCC3(CC3C(=O)O)C2)cc(C(F)(F)F)c1C#N (some centres not stated)
 |  |  | < 6.00 |  |  |  | Not Determined(Insoluble) |  | O=C(O)CC[C@H]1CCN(c2nc(N3CC4CCCC43)nc3c2CCC3(F)F)C1 (some centres not stated)
 |  |  | < 6.00 |  |  |  | Not Determined(Insoluble) |  | C[C@H]1CCN1c1nc(N2CCC(C)(CC(=O)O)C2)cc(C(F)(F)F)c1C#N (some centres not stated)
 |  |  | 6.07 |  |  |  | Not Determined(Insoluble) |  | C[C@H]1CCN1c1nc(N2CC[C@H](CCC(=O)O)C2)cc(C(F)(F)F)n1
6.13 ×10⁻⁶ cm/s | > 1000 µM | 0.58 | 7.46 | 4.54 |  |  |  |  | C[C@H]1CCN1c1nc(N2C[C@H]3CC[C@H](C(=O)O)[C@H]3C2)c2c(n1)C(F)(F)CC2 (racemic)
18.3 ×10⁻⁶ cm/s | 230 µM (≈ 90.5 µg/mL) | 2.31 | 7.66 | 1.13 |  | 10.4 µL/min/mg |  |  | C[C@H]1CCN1c1nc(N2C[C@H]3CC[C@H](C(=O)O)[C@H]3C2)cc(C(F)(F)F)c1C#N (racemic)
1.47 ×10⁻⁶ cm/s | 999 µM (≈ 352 µg/mL) | 0.01 | 7.31 | 11.2 |  |  |  |  | C[C@H]1CCN1c1nc(N2CC[C@H](CC(=O)O)C2)c2c(n1)C(F)(F)CC2
 |  |  |  |  | 4.5 µL/min/mg | 6.2 µL/min/mg |  | 5.5 µL/min/mg | C[C@H]1CCN1c1nc(N2CCC3(CC(C(=O)O)C3)C2)cc(C(F)(F)F)c1C#N (some centres not stated)
0.23 ×10⁻⁶ cm/s | > 1000 µM | -1.1 | 7.27 | 19.9 |  |  |  |  | C[C@H]1CCN1c1nc(N2CC[C@H](OCC(=O)O)C2)c2c(n1)C(F)(F)CC2
 |  |  | 7.05 |  |  |  | Not Determined(Insoluble) |  | C[C@H]1CCN1c1nc(N2CC[C@H](CCC(=O)O)C2)c2c(n1)C(F)(F)CCC2
5.14 ×10⁻⁶ cm/s | > 1000 µM | 0.86 | 7.59 | 7.81 | 64.6 µL/min/mg |  |  |  | O=C(O)CC[C@H]1CCN(c2nc(N3CC[C@@H]3C(F)(F)F)nc3c2CCC3(F)F)C1
 |  |  | < 6.00 |  |  |  | Not Determined(Insoluble) |  | C[C@H]1CCN1c1nc(N2CCC3(CC3C(=O)O)C2)cc(C(F)(F)F)n1 (some centres not stated)
